Test results from ChEMBL document CHEMBL4507276 (2021).

Experiments:
Settings in all cases: Compound concentration 1000.0 nM
[1] = tested on: Mast/stem cell growth factor receptor Kit (Homo sapiens), P10721 [A829P]
[2] = molecular target: T1, Tyrosine-protein kinase JAK3 (Homo sapiens) (UniProt P52333)
T1 sequence (whole entry): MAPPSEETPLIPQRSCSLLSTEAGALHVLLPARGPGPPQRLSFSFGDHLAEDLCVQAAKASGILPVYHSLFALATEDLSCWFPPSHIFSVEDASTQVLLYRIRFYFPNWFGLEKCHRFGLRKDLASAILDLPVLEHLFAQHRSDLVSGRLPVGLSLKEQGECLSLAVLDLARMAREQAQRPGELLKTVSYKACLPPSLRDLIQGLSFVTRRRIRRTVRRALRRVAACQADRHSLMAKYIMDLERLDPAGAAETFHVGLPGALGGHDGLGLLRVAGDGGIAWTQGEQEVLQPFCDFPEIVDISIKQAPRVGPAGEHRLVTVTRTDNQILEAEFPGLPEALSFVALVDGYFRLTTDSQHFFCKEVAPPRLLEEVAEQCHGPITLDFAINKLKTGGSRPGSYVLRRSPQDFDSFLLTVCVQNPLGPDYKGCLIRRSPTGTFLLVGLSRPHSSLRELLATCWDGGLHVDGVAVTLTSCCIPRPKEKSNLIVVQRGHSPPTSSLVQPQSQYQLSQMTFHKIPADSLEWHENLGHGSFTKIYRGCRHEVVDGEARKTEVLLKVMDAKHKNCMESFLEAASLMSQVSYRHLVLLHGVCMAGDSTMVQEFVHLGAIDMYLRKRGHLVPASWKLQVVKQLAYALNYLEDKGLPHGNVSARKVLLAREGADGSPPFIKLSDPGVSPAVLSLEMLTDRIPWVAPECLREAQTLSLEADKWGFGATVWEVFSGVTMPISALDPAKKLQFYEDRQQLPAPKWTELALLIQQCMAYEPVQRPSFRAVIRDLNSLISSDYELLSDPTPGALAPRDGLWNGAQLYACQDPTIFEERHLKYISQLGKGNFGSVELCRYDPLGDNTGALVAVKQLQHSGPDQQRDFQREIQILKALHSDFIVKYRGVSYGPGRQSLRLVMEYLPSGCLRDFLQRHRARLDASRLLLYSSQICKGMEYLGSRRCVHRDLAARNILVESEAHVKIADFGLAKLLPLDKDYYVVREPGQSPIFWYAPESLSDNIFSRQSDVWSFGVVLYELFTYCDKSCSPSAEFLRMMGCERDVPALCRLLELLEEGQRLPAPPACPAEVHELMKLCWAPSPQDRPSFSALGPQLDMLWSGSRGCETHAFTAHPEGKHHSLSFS

[3] = molecular target: Macrophage-stimulating protein receptor (Homo sapiens) (UniProt Q04912)
[4] = tested on: Epidermal growth factor receptor (Homo sapiens), P00533 [UNDEFINED MUTATION]
[5] = molecular target: T2, Serine/threonine-protein kinase D3 (Homo sapiens) (UniProt O94806)
T2 sequence (whole entry): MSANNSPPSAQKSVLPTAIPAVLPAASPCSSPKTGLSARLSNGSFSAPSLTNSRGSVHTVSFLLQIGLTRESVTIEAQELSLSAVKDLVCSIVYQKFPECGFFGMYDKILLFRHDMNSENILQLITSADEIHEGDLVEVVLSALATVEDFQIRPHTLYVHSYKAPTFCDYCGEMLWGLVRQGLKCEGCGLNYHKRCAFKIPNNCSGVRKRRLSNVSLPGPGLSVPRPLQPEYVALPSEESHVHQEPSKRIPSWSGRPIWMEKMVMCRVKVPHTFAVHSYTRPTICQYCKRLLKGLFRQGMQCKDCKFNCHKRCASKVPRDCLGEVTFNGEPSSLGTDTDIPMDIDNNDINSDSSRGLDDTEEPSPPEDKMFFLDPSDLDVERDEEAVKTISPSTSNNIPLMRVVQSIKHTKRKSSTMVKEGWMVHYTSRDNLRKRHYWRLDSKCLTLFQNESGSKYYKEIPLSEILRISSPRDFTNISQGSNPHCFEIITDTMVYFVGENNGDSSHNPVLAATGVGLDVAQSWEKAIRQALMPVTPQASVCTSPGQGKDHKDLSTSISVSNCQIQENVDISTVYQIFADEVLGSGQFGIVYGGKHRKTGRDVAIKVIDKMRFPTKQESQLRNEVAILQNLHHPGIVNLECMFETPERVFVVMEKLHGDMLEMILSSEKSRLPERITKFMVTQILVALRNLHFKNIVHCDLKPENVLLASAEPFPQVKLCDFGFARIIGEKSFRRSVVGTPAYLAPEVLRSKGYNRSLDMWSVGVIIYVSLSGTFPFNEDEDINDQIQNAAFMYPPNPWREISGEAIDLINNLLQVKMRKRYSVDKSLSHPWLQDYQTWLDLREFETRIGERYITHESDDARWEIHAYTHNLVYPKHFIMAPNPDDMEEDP

[6] = molecular target: STE20/SPS1-related proline-alanine-rich protein kinase (Homo sapiens) (UniProt Q9UEW8)
[7] = molecular target: T3, Inhibitor of nuclear factor kappa-B kinase subunit beta (Homo sapiens) (UniProt O14920)
T3 sequence (whole entry): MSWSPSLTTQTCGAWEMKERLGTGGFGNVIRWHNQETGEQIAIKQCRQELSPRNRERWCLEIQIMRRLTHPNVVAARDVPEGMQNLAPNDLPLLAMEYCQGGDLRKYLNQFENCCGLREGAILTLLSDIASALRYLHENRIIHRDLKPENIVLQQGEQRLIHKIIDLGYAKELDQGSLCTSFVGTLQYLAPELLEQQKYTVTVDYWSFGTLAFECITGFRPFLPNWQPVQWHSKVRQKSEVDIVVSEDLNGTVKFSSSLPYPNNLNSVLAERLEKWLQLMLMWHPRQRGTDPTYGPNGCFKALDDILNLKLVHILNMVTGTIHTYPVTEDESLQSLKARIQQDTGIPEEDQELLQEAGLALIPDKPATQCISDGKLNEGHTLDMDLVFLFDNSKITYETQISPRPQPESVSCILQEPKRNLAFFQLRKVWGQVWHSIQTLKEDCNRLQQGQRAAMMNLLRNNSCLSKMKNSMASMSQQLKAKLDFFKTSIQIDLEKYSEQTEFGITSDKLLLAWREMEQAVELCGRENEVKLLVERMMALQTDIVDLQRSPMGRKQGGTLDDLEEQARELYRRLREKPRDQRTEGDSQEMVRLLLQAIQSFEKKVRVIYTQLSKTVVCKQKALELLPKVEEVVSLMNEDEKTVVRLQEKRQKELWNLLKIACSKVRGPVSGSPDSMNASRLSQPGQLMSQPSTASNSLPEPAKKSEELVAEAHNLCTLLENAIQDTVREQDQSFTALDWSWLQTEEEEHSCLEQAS

Measured: residual activity

Epidermal growth factor receptor (Homo sapiens), P00533 [UNDEFINED MUTATION], sequence (P00533 whole entry, looked up, change not shown): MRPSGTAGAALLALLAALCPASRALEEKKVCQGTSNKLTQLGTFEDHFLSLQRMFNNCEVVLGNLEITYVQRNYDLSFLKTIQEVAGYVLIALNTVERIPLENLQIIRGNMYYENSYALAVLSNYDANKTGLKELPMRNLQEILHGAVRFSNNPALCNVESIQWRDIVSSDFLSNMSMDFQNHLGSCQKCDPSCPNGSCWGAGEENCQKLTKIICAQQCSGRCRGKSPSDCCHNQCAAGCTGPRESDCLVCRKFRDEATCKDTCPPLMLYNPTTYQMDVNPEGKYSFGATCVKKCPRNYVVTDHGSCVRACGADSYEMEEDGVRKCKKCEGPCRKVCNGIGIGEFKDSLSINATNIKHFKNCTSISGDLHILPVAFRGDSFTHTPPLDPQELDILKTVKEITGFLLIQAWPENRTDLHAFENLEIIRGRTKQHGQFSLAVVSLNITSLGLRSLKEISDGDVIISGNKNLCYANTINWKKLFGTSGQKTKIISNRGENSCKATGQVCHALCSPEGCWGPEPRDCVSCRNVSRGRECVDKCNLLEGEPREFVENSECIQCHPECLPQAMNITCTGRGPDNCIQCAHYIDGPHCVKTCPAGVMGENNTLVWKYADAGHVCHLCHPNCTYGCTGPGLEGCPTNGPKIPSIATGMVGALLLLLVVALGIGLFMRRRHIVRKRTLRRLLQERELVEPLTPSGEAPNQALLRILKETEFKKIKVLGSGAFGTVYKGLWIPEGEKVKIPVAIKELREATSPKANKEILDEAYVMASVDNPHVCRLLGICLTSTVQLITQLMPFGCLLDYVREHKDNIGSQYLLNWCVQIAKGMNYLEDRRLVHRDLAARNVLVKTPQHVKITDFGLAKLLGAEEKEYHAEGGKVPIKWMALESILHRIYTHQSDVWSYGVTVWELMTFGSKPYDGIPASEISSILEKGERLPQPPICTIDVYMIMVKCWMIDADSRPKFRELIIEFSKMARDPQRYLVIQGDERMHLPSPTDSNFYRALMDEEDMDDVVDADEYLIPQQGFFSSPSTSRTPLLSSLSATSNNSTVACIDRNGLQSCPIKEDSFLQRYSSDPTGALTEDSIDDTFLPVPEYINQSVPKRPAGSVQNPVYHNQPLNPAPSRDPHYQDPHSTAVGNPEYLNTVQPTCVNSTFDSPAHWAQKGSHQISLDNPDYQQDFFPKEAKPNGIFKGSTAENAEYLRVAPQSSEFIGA
Macrophage-stimulating protein receptor (Homo sapiens), sequence (Q04912 25-304 limits assumed): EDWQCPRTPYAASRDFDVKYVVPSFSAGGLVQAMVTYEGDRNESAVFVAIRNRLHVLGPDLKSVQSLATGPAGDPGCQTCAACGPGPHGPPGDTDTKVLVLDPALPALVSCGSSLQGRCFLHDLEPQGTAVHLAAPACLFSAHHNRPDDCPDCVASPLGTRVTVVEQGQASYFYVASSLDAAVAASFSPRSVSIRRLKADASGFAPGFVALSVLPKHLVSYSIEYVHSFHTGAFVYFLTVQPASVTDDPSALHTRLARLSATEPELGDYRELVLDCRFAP
Macrophage-stimulating protein receptor (Homo sapiens), sequence (Q04912 310-1400 limits assumed): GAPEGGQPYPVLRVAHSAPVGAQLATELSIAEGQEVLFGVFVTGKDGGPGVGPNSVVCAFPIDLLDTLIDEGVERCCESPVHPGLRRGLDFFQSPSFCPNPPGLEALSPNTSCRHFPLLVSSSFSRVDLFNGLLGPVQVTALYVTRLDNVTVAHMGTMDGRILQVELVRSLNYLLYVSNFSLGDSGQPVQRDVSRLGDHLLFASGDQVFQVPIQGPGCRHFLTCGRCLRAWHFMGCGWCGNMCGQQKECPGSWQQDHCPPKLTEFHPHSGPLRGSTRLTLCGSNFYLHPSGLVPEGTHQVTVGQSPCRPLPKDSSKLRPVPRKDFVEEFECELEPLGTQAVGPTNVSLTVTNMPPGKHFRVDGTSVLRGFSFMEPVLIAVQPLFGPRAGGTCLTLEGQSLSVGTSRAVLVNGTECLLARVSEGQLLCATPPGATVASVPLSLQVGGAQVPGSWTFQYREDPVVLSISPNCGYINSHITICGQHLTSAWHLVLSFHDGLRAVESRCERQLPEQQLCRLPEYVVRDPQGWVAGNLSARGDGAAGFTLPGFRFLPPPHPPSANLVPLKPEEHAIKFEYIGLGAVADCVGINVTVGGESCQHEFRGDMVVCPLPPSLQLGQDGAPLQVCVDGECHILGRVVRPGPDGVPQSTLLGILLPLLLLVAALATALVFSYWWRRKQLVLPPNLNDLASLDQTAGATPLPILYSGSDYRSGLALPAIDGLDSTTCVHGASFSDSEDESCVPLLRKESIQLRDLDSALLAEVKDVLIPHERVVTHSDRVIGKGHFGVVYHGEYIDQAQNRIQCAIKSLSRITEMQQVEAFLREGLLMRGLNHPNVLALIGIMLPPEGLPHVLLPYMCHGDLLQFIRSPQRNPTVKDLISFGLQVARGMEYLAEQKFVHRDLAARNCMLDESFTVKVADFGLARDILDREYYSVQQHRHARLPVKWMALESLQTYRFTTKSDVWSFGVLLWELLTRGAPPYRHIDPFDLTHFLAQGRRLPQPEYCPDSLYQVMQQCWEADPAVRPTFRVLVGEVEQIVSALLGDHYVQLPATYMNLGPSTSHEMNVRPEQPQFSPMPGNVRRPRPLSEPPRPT
Mast/stem cell growth factor receptor Kit (Homo sapiens), P10721 [A829P], sequence (P10721 whole entry A829P): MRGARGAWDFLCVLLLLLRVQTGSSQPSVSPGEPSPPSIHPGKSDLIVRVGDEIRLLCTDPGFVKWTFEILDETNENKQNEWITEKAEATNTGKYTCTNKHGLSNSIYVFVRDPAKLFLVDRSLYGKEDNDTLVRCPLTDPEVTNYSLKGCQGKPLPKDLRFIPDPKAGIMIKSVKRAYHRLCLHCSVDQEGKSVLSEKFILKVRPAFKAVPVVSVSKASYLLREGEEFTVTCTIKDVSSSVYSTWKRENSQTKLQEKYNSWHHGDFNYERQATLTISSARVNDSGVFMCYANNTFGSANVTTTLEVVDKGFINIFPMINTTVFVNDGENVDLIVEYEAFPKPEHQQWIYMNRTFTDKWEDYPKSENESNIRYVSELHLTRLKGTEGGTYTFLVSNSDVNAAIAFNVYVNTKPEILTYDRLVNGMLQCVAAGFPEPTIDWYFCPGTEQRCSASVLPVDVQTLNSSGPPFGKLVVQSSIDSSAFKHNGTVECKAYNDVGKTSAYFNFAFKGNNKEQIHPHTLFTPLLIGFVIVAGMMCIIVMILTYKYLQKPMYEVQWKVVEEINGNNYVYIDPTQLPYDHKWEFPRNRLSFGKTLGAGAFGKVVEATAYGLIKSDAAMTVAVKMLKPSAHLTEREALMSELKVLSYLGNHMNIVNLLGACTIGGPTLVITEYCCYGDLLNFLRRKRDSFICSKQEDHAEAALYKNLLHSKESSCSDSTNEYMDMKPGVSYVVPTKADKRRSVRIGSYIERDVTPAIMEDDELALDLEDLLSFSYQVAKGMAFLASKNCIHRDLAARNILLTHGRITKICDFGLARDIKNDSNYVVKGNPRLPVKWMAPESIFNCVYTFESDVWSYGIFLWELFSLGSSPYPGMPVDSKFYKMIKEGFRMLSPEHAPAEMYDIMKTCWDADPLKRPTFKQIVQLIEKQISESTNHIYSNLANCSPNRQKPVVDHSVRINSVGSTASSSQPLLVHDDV

CN(C)C(=O)Cn1cc(-c2nc(C3(c4ccc(-c5cnc(N)nc5)cc4)CC3)no2)cn1 [BI 0153]
inactive: [1] 93% | [2] 80% | [3] 95% | [4] 67% | [5] 92% | [6] 100% | [7] 90%

CN(C)C(=O)Cn1cc(-c2nc([C@@](C)(c3ccc(-c4cnc(N)nc4)cc3)C3CC3)no2)cn1 [BI 665915]
inactive: [1] 80% | [2] 95% | [3] 79% | [4] 100% | [5] 100% | [6] 81% | [7] 100%
